Structures can show the parent of a compound that is named as a salt. Residues, ends and D or L forms follow the SMILES beside them.
Key:
Format in all cases: in vivo
[1] = system: insulin; assay: Suppression of Growth Hormone, Glucagon and Insulin (arginine-stimulated, nembutal-anesthetized rats): insulin; conditions: albino male rats, arginine stimulation, blood 15 min after compound
Experimental: (§1) Albino male rats are arranged in the three groups (nine rats/group) and injected i.p. with nembutal at 50 mg/kg. Fifteen minutes after the nembutal injection they are injected s.c. according to group with (a) test compound, typically 10-2000 μg/kg.; )b) SRIF 200 μg/kg.; or (c) physiological saline. Ten minutes. later 0.5 ml. of arginine (300 mg/ml. pH 7.2) is injected into the heart. The rats are decapitated five minutes after receiving the arginine, and the blood is collected into Trasylol-EDTA. Appropriate aliquots are then assayed for growth hormone, glucagon and insulin. […] Comparisons between control and experimental values are statistically evaluated by the analysis of variants method and statistical significance (p) at 0.05 or lower is used as the index of activity.

[2] = system: growth hormone (GH); assay: Suppression of Growth Hormone (duration of activity, 2 and 4 hours after sc injection); conditions: 1 mg/kg sc, nonfasted male rats, paired saline control; for plasma growth hormone (GH) concentration, 2 Hr.: 2 hours after injection; for plasma growth hormone (GH) concentration, 4 Hr.: 4 hours after injection
Experimental: A subcutaneous (sc) injection of peptide solubilized or suspended in physiological saline, is given to Charles River (CD® nonfasted male rats. Matched saline control solution sc injected rats serve as control animals so that every experimental rat is paired with a control rat. The rats are kept in separate cages and 20 minutes before the end of the test time period they are given an intraperitoneal (i.p.) injection of Nembutal® at a dose of 50 mg/kg. Blood samples are obtained by cardiac puncture and the plasma separated for the radioimmunoassay of growth hormone (GH) concentration (ng/ml.). Time periods after injection of 2 and 4 hours are used to test the duration of the activity of the peptide to suppress circulating peripheral GH levels. Comparisons between control and experimental GH values at each time are evaluated by the Student "t" test and statistical significance (p) at the 0.05 level or lower is used as the index of activity.

[3] = system: growth hormone; assay: Suppression of Growth Hormone, Glucagon and Insulin (arginine-stimulated, nembutal-anesthetized rats): growth hormone; conditions: for GH: albino male rats, arginine stimulation, blood 15 min after compound
Experimental: as §1

[4] = system: glucagon; assay: Suppression of Growth Hormone, Glucagon and Insulin (arginine-stimulated, nembutal-anesthetized rats): glucagon; conditions: albino male rats, arginine stimulation, blood 15 min after compound
Experimental: as §1

| SMILES | Insulin ([1]; 10 μg/kg s.c.) [μU/ml.] | Insulin ([1]; 100 μg/kg s.c.) [μU/ml.] | plasma growth hormone (GH) concentration, 2 Hr. [2] [ng/mL] | plasma growth hormone (GH) concentration, 4 Hr. [2] [ng/mL] | GH ([3]; 10 μg/kg s.c.) [ng/mL] | GH ([3]; 100 μg/kg s.c.) [ng/mL] | hormone specificity of suppression ([3]; at low doses, growth hormone, glucagon and insulin) | Glucagon ([4]; 10 μg/kg s.c.) [pg/mL] | Glucagon ([4]; 100 μg/kg s.c.) [pg/mL] |
| --- | --- | --- | --- | --- | --- | --- | --- | --- | --- |
| C[C@@H](O)[C@@H]1NC(=O)[C@H](CCCCN)NC(=O)[C@@H](Cc2c[nH]c3ccccc23)NC(=O)[C@H](Cc2ccccc2)NC(=O)[C@H](Cc2ccccc2)NC(=O)[C@H](Cc2c[nH]cn2)NC(=O)[C@H](Cc2c[nH]cn2)NC(=O)[C@@H](N)CSSC[C@H](C(=O)O)NC(=O)[C@H](CO)NC(=O)[C@H]([C@@H](C)O)NC(=O)[C@H](Cc2ccccc2)NC1=O [Compound II, L-Cysteinyl-L-Histidyl-L-Histidyl-L-Phenylalanyl-L-Phenylalanyl-D-Tryptophyl-L-Lysyl-L-Threonyl-L-Phenylalanyl-L-Threonyl-L-Seryl-D-Cysteine Cyclic (1-12) Disulfide, Diacetate Salt] (HELM PEPTIDE1{C.H.H.F.F.[dW].K.T.F.T.S.[dC]}$PEPTIDE1,PEPTIDE1,1:R3-12:R3$$$V2.0) | 318 ± 54 | 165 ± 21 | 20 ± 3 | 107 ± 34 | 110 ± 22 | 64 ± 20 | specific for the suppression of glucagon and growth hormone without affecting insulin secretion | 70 ± 7 | 5 ± 2 |
| C[C@@H](O)[C@@H]1NC(=O)[C@H](Cc2ccccc2)NC(=O)[C@H]([C@@H](C)O)NC(=O)[C@H](CCCCN)NC(=O)[C@@H](Cc2c[nH]c3ccccc23)NC(=O)[C@H](Cc2ccccc2)NC(=O)[C@H](Cc2ccccc2)NC(=O)[C@H](Cc2c[nH]cn2)NC(=O)[C@H](Cc2c[nH]cn2)NC(=O)[C@@H](N)CSSC[C@@H](C(=O)O)NC(=O)[C@H](CO)NC1=O [Compound I, L-Cysteinyl-L-Histidyl-L-Histidyl-L-Phenylalanyl-L-Phenylalanyl-D-Trptophyl-L-Lysyl-L-Threonyl-L-Phenylalanyl-L-Threonyl-L-Seryl-L-Cysteine Cyclic (1-12) Disulfide] (HELM PEPTIDE1{C.H.H.F.F.[dW].K.T.F.T.S.C}$PEPTIDE1,PEPTIDE1,1:R3-12:R3$$$V2.0) | – | 202 ± 49 | 32 ± 6 | 62 ± 13 | – | 20 ± 8 | – | – | 20 ± 8 |

From patent publication US4104267A, “Somatostatin analogs” (American Home Products Corporation, priority 1977, dated 1978)
